Test results taken from paper PMC4061482 (Frontiers in Oncology, 2014).
Where two headings read alike, the source gives them in different places.

Key:
[1] = tested on: AKR1C3; design: method as in PMID 23454516; details: cited from earlier work
[2] = tested on: LAPC4 AKR1C3 cells; experiment: Testosterone ELISA after androstenedione stimulation; assay type: cell-based; details: Homo sapiens, 28 nM androstenedione, 24 h, read-out: Inhibition of testosterone levels
Protocol: (§1) Cells were seeded into 96-well plates in hormone-deprived media at appropriate seeding densities [10,000–50,000 cells per well for all lines except HCC1500 (100,000 cells per well; 11β-PGF2α ELISA)] to reach approximately 70% confluency at the time of sampling and were left to settle for 24 h at 37°C and 5% CO2. Inhibitors were added to the plates at single or multiple concentrations for 1 h prior to administration of equimolar (28 nM) concentrations of PGD2 (11β-PGF2α ELISA), androstenedione (testosterone ELISA), or estrone (17β-estradiol ELISA). […] Each ELISA plate was read at a wavelength of 405 nm (11β-PGF2α and testosterone) or 650 nM (17β-estradiol) on a SpectraMax M2 microplate reader (Molecular Devices) and quantitated against a standard curve generated in hormone-deprived culture media. […]
(§2) Since AKR1C3 has been implicated in the development of CRPC because of its ability to produce testosterone intratumorally from circulating androstenedione, we determined testosterone concentrations in the prostate cancer cell lines and known high and low AKR1C3-expressing cells after stimulation with androstenedione for 24 h. […]

[3] = tested on: T47D cells; experiment: 17β-estradiol ELISA after estrone stimulation; assay type: cell-based, human; details: 10 μM; 28 nM estrone, 24 h
Protocol: (§3) Cells were seeded into 96-well plates in hormone-deprived media at appropriate seeding densities [10,000–50,000 cells per well for all lines except HCC1500 (100,000 cells per well; 11β-PGF2α ELISA)] to reach approximately 70% confluency at the time of sampling and were left to settle for 24 h at 37°C and 5% CO2. Inhibitors were added to the plates at single or multiple concentrations for 1 h prior to administration of equimolar (28 nM) concentrations of PGD2 (11β-PGF2α ELISA), androstenedione (testosterone ELISA), or estrone (17β-estradiol ELISA). The plates were returned to the incubator for a further 24 h before cell supernatant was removed for analysis of 11β-PGF2α, testosterone, or 17β-estradiol by ELISA as per manufacturer’s instructions (11β-PGF2α and testosterone ELISA, Cayman Chemical Company; 17β-estradiol ELISA, Oxford Biomedical Research), and cells were fixed for sulforhodamine B analysis as described below. Each ELISA plate was read at a wavelength of 405 nm (11β-PGF2α and testosterone) or 650 nM (17β-estradiol) on a SpectraMax M2 microplate reader (Molecular Devices) and quantitated against a standard curve generated in hormone-deprived culture media. Cross-reactivity to PGD2, androstenedione, or estrone was accounted for by adding these to cell-free wells of each ELISA plate.
(§4) 17β-estradiol is predominantly produced from estrone by 17β-HSD1 in breast tissue in post-menopausal women ([44]). Although less catalytically efficient than 17β-HSD1, AKR1C3 can also convert estrone to 17β-estradiol ([10], [12], [14]), and therefore, may play a role in ER-positive breast cancer development. To investigate the activity of AKR1C3 in 17β-estradiol production, ER-positive breast cancer cells and known high and low AKR1C3-expressing cells were stimulated with estrone for 24 h prior to determination of 17β-estradiol levels by ELISA.

[4] = tested on: MCF7 cells; experiment: 17β-estradiol ELISA after estrone stimulation; assay type: cell-based, human; details: Homo sapiens, MCF7; 10 μM; 28 nM estrone, 24 h; read-out: Inhibition of 17β-estradiol formation
Protocol: as §3, §4

[5] = tested on: T47D AKR1C3 cells; experiment: 17β-estradiol ELISA after estrone stimulation; assay type: cell-based, human; details: 10 μM; 28 nM estrone, 24 h
Protocol: as §3, §4

[6] = tested on: other AKR1C isoforms; experiment: Inhibition of isolated AKR1C enzymes; assay type: biochemical; details: 10 μM; unpublished data
[7] = tested on: T47D cells; experiment: Cell proliferation (sulforhodamine B), 5 days; assay type: cell-based, human; details: 10 μM, estrone up to 10 nM
Protocol: (§5) Cells were seeded into 96-well plates in hormone-deprived media at appropriate seeding densities (5000–20,000 cells per well) to reach approximately 70% confluency at the time of sampling and left to settle for 48 h at 37°C and 5% CO2. […] The plates were returned to the incubator for 5 days before fixing in 10% trichloroacetic acid (Merck Millipore) at 4°C for 1 h and staining with 0.4% sulforhodamine B (Sigma-Aldrich) in 1% acetic acid for 30 min in the dark at room temperature. Plates were washed in 1% acetic acid, dried, and incubated with unbuffered Tris base (10 mM; Serva) for 30 min on a plate shaker in the dark to solubilize the stain. The plates were read on a BioTek EL808 microplate reader at an absorbance of 490 nm with a reference wavelength of 450 nm.
(§6) Neither androstenedione nor estrone-stimulated cell proliferation in the HCT116 AKR1C3 and wild-type cell lines (data not shown).

[8] = tested on: T47D AKR1C3 cells; experiment: Cell proliferation (sulforhodamine B), 5 days; assay type: cell-based, human; details: 10 μM, estrone up to 10 nM
Protocol: as §5, §6

[9] = tested on: HCT116 AKR1C3 cells; experiment: Testosterone ELISA after androstenedione stimulation; assay type: cell-based, human; details: Homo sapiens, HCT-116; for inhibition at 10 µM: read-out: Inhibition of testosterone levels
Protocol: as §3
(§7) Since AKR1C3 has been implicated in the development of CRPC because of its ability to produce testosterone intratumorally from circulating androstenedione, we determined testosterone concentrations in the prostate cancer cell lines and known high and low AKR1C3-expressing cells after stimulation with androstenedione for 24 h.

[10] = tested on: NCI-H460 cells; experiment: as above; assay type: cell-based, human; details: Homo sapiens, NCI-H460; 10 μM; 28 nM androstenedione, 24 h; read-out: Inhibition of testosterone levels
Protocol: as §3, §7

[11] = tested on: all cell lines; experiment: Unstimulated cell proliferation (sulforhodamine B), 5 days, all cell lines; assay type: cell-based, human; details: 10 μM, all cell lines except MCF7
Protocol: as §5
Finally, we investigated whether inhibiting AKR1C3-dependent testosterone or 17β-estradiol production could prevent androstenedione- or estrone-stimulated cell proliferation in CRPC or ER-positive breast cancer cells.

[12] = tested on: LNCaP cells; experiment: Testosterone ELISA after androstenedione stimulation; assay type: cell-based, human; details: 10 μM; 28 nM androstenedione, 24 h; P < 0.05
Protocol: as §1, §2

[13] = tested on: LAPC4 wild-type cells; experiment: PSA concentration after androstenedione stimulation; assay type: cell-based, human; details: 10 μM; androstenedione up to 10 nM, 24 h
Protocol: Cells were seeded at 20,000 cells per well (LAPC4, LAPC4 AKR1C3) or 50,000 cells per well (22RV1) into 96-well plates in hormone-deprived media and left to settle for 24 h at 37°C and 5% CO2. […] The plates were returned to the incubator for 24 h, before the cell supernatant was removed and frozen for PSA analysis. Determination of total PSA concentration was carried out at LabPLUS, Auckland City Hospital, by immunoassay on a Cobas® e601 analyzer according to manufacturer’s instructions (Roche).
Next, PSA expression was determined in the CRPC cell lines that were sensitive to SN33638-mediated inhibition of testosterone (LAPC4 AKR1C3 and 22RV1 with LAPC4 wild-type cells acting as a negative control) as a biomarker of AR activity. […] Androstenedione stimulation promoted PSA production in all three cell lines, with the highest PSA levels observed in LAPC4 AKR1C3 cells.

CC1CCCCN1S(=O)(=O)c1ccc(N2CCCC2=O)cc1 (stereo not drawn) [SN33638]
Potency against AKR1C3 [1]: low nanomolar | inhibition at 10 µM [2]: 96.8% | Effect on 17β-estradiol levels [3]: no effect | inhibition at 10 µM [4]: 16% | Effect on 17β-estradiol levels [5]: no effect | Inhibition against each isolated enzyme (other AKR1C isoforms) [6]: < 14% | Effect on estrone-stimulated cell proliferation [7]: not significantly inhibited | Effect on estrone-stimulated cell proliferation [8]: not significantly inhibited | inhibition at 10 µM ([9]; 10 μM alone, Figure 4D): 73.7% | inhibition at 10 µM ([9]; 10 μM, 28 nM androstenedione, 24 h, Figure 4B): 74.2% | EC50 ([9]; HCT116 AKR1C3 cells, 28 nM androstenedione, 24 h, read-out: EC50 of inhibition of testosterone production): 7.4 ± 1.2 nM | inhibition at 10 µM [10]: 54.1% | Effect on unstimulated cell proliferation [11]: no effect | Effect on testosterone levels [12]: significantly increased | Effect on PSA formation [13]: no significant effect
